# Reference: paper PMC11968843, “Sulphostin-inspired N-phosphonopiperidones as selective covalent DPP8 and DPP9 inhibitors” (Nature Communications, 2025)
# Tests used:
# Experiment in all cases: Competitive ABPP / direct target identification with alkyne probe 9 in HEK293 cell lysates
# Format in all cases: binding, H. sapiens
# [1] = biological target: T1, HEK293 cell lysates (proteome-wide targets of probe 9) (Homo sapiens, UniProt P26641); conditions: protein EEF1G
# T1 construct: endogenous in cells; host or cells: HEK293 cell lysate
# [2] = biological target: T2, HEK293 cell lysates (proteome-wide targets of probe 9) (Homo sapiens, UniProt P78371); conditions: protein CCT2
# T2 construct: endogenous in cells; host or cells: HEK293 cell lysate
# [3] = biological target: T3, HEK293 cell lysates (proteome-wide targets of probe 9) (Homo sapiens, UniProt P53396); conditions: protein ACLY
# T3 construct: endogenous in cells; host or cells: HEK293 cell lysate
# [4] = biological target: T4, HEK293 cell lysates (proteome-wide targets of probe 9) (Homo sapiens, UniProt Q04837); conditions: protein SSBP1
# T4 construct: endogenous in cells; host or cells: HEK293 cell lysate
# [5] = biological target: T5, HEK293 cell lysates (proteome-wide targets of probe 9) (Homo sapiens, UniProt P62829); conditions: protein RPL23
# T5 construct: endogenous in cells; host or cells: HEK293 cell lysate
# [6] = biological target: T6, HEK293 cell lysates (proteome-wide targets of probe 9) (Homo sapiens, UniProt Q15366); conditions: protein PCBP2
# T6 construct: endogenous in cells; host or cells: HEK293 cell lysate
# [7] = biological target: T7, HEK293 cell lysates (proteome-wide targets of probe 9) (Homo sapiens, UniProt P25398); conditions: protein RPS12
# T7 construct: endogenous in cells; host or cells: HEK293 cell lysate
# [8] = biological target: T8, HEK293 cell lysates (proteome-wide targets of probe 9) (Homo sapiens, UniProt P61978); conditions: protein HNRNPK
# T8 construct: endogenous in cells; host or cells: HEK293 cell lysate
# [9] = biological target: T9, HEK293 cell lysates (proteome-wide targets of probe 9) (Homo sapiens, UniProt P62424); conditions: protein RPL7A
# T9 construct: endogenous in cells; host or cells: HEK293 cell lysate
# [10] = biological target: T10, HEK293 cell lysates (proteome-wide targets of probe 9) (Homo sapiens, UniProt Q08211); conditions: protein DHX9
# T10 construct: endogenous in cells; host or cells: HEK293 cell lysate
# [11] = biological target: T11, HEK293 cell lysates (proteome-wide targets of probe 9) (Homo sapiens, UniProt Q9H6P5); conditions: protein TASP1 (Threonine aspartase 1)
# T11 construct: endogenous in cells; host or cells: HEK293 cell lysate
# [12] = biological target: T12, HEK293 cell lysates (proteome-wide targets of probe 9) (Homo sapiens, UniProt P22314); conditions: protein UBA1
# T12 construct: endogenous in cells; host or cells: HEK293 cell lysate
# [13] = biological target: T13, HEK293 cell lysates (proteome-wide targets of probe 9) (Homo sapiens, UniProt Q86TI2); conditions: protein DPP9 (Dipeptidyl peptidase 9)
# T13 construct: endogenous in cells; host or cells: HEK293 cell lysate
# [14] = biological target: T14, HEK293 cell lysates (proteome-wide targets of probe 9) (Homo sapiens, UniProt Q5T749); conditions: protein KPRP
# T14 construct: endogenous in cells; host or cells: HEK293 cell lysate
# [15] = biological target: T15, HEK293 cell lysates (proteome-wide targets of probe 9) (Homo sapiens, UniProt P08670); conditions: protein VIM
# T15 construct: endogenous in cells; host or cells: HEK293 cell lysate
# [16] = biological target: T16, HEK293 cell lysates (proteome-wide targets of probe 9) (Homo sapiens, UniProt Q9NR30); conditions: protein DDX21
# T16 construct: endogenous in cells; host or cells: HEK293 cell lysate
# [17] = biological target: T17, HEK293 cell lysates (proteome-wide targets of probe 9) (Homo sapiens, UniProt P10599); conditions: protein TXN
# T17 construct: endogenous in cells; host or cells: HEK293 cell lysate
# [18] = biological target: T18, HEK293 cell lysates (proteome-wide targets of probe 9) (Homo sapiens, UniProt Q96RQ3); conditions: protein MCCC1
# T18 construct: endogenous in cells; host or cells: HEK293 cell lysate
# [19] = biological target: T19, HEK293 cell lysates (proteome-wide targets of probe 9) (Homo sapiens, UniProt Q12802); conditions: protein AKAP13
# T19 construct: endogenous in cells; host or cells: HEK293 cell lysate
# [20] = biological target: T20, HEK293 cell lysates (proteome-wide targets of probe 9) (Homo sapiens, UniProt P05165); conditions: protein PCCA
# T20 construct: endogenous in cells; host or cells: HEK293 cell lysate
# [21] = biological target: T21, HEK293 cell lysates (proteome-wide targets of probe 9) (Homo sapiens, UniProt P04075); conditions: protein ALDOA
# T21 construct: endogenous in cells; host or cells: HEK293 cell lysate
# [22] = biological target: T22, HEK293 cell lysates (proteome-wide targets of probe 9) (Homo sapiens, UniProt Q00839); conditions: protein HNRNPU
# T22 construct: endogenous in cells; host or cells: HEK293 cell lysate
# [23] = biological target: T23, HEK293 cell lysates (proteome-wide targets of probe 9) (Homo sapiens, UniProt Q06830); conditions: protein PRDX1
# T23 construct: endogenous in cells; host or cells: HEK293 cell lysate
# [24] = biological target: T24, HEK293 cell lysates (proteome-wide targets of probe 9) (Homo sapiens, UniProt P06733); conditions: protein ENO1
# T24 construct: endogenous in cells; host or cells: HEK293 cell lysate
# [25] = biological target: T25, HEK293 cell lysates (proteome-wide targets of probe 9) (Homo sapiens, UniProt P81605); conditions: protein DCD
# T25 construct: endogenous in cells; host or cells: HEK293 cell lysate
# [26] = biological target: T26, HEK293 cell lysates (proteome-wide targets of probe 9) (Homo sapiens, UniProt P04406); conditions: protein GAPDH
# T26 construct: endogenous in cells; host or cells: HEK293 cell lysate
# [27] = biological target: T27, HEK293 cell lysates (proteome-wide targets of probe 9) (Homo sapiens, UniProt P11021); conditions: protein HSPA5
# T27 construct: endogenous in cells; host or cells: HEK293 cell lysate
# [28] = biological target: T28, HEK293 cell lysates (proteome-wide targets of probe 9) (Homo sapiens, UniProt P13639); conditions: protein EEF2
# T28 construct: endogenous in cells; host or cells: HEK293 cell lysate
# [29] = biological target: T29, HEK293 cell lysates (proteome-wide targets of probe 9) (Homo sapiens, UniProt Q13085); conditions: protein ACACA
# T29 construct: endogenous in cells; host or cells: HEK293 cell lysate
# [30] = biological target: T30, HEK293 cell lysates (proteome-wide targets of probe 9) (Homo sapiens, UniProt P30041); conditions: protein PRDX6
# T30 construct: endogenous in cells; host or cells: HEK293 cell lysate
# [31] = biological target: T31, HEK293 cell lysates (proteome-wide targets of probe 9) (Homo sapiens, UniProt P14923); conditions: protein JUP
# T31 construct: endogenous in cells; host or cells: HEK293 cell lysate
compound,measurement,setting,value
CCCCCc1ccc(SCCP(=O)(OCC)N2CCC[C@H](N)C2=O)cc1.O=C(O)C(F)(F)F (some centres unmarked) [Compound 16],Log2-fold change (16/9),[1],-0.1709
same,Log2-fold change (16/9),[2],-0.827
same,Log2-fold change (16/9),[3],-0.4196
same,Log2-fold change (16/9),[4],-1.78
same,Log2-fold change (16/9),[5],-1.084
same,Log2-fold change (16/9),[6],-0.4376
same,Log2-fold change (16/9),[7],0.07588
same,Log2-fold change (16/9),[8],-0.758
same,Log2-fold change (16/9),[9],0.2888
same,Log2-fold change (16/9),[10],-0.1923
same,Log2-fold change (16/9),[11],0.8543
same,Log2-fold change (16/9),[12],-0.4211
same,Log2-fold change (16/9),[13],-5.229
same,Log2-fold change (16/9),[14],0.315
same,Log2-fold change (16/9),[15],-0.2472
same,Log2-fold change (16/9),[16],0.06992
same,Log2-fold change (16/9),[17],-0.6696
same,Log2-fold change (16/9),[18],0.1036
same,Log2-fold change (16/9),[19],0.6936
same,Log2-fold change (16/9),[20],0.1044
same,Log2-fold change (16/9),[21],-0.5623
same,Log2-fold change (16/9),[22],-1.015
same,Log2-fold change (16/9),[23],0.107
same,Log2-fold change (16/9),[24],0.05891
same,Log2-fold change (16/9),[25],2.05
same,Log2-fold change (16/9),[26],0.4935
same,Log2-fold change (16/9),[27],0.6165
same,Log2-fold change (16/9),[28],-0.2717
same,Log2-fold change (16/9),[29],0.3401
same,Log2-fold change (16/9),[30],0.07848
same,Log2-fold change (16/9),[31],-0.03524
C#CCCCP(=O)(OCC)N1CCCC(N)C1=O.O=C(O)C(F)(F)F (mixture of isomers) [Compound 9],Log2-fold change (9/DMSO),[1],0.4327
same,Log2-fold change (9/DMSO),[2],1.1495
same,Log2-fold change (9/DMSO),[3],0.4032
same,Log2-fold change (9/DMSO),[4],-1.05
same,Log2-fold change (9/DMSO),[5],0.1532
same,Log2-fold change (9/DMSO),[6],1.083
same,Log2-fold change (9/DMSO),[7],-1.46
same,Log2-fold change (9/DMSO),[8],0.1297
same,Log2-fold change (9/DMSO),[9],1.788
same,Log2-fold change (9/DMSO),[10],-0.5054
same,Log2-fold change (9/DMSO),[11],-4.505
same,Log2-fold change (9/DMSO),[12],0.5182
same,Log2-fold change (9/DMSO),[13],5.502
same,Log2-fold change (9/DMSO),[14],-0.1834
same,Log2-fold change (9/DMSO),[15],0.9336
same,Log2-fold change (9/DMSO),[16],0.9591
same,Log2-fold change (9/DMSO),[17],1.146
same,Log2-fold change (9/DMSO),[18],-0.5895
same,Log2-fold change (9/DMSO),[19],-0.9342
same,Log2-fold change (9/DMSO),[20],-0.691
same,Log2-fold change (9/DMSO),[21],0.3187
same,Log2-fold change (9/DMSO),[22],-0.419
same,Log2-fold change (9/DMSO),[23],0.4333
same,Log2-fold change (9/DMSO),[24],-0.0902
same,Log2-fold change (9/DMSO),[25],-2.5876
same,Log2-fold change (9/DMSO),[26],-0.2878
same,Log2-fold change (9/DMSO),[27],-0.3942
same,Log2-fold change (9/DMSO),[28],0.2112
same,Log2-fold change (9/DMSO),[29],-0.276
same,Log2-fold change (9/DMSO),[30],0.7412
same,Log2-fold change (9/DMSO),[31],0.133
